Where two headings read alike, the source gives them in different places.
Columns and labels:
Format in all cases: cell-based
HT-29 = experiment: In vitro cell viability assay (Cell Titer Glo), colorectal cancer HT-29; details: Homo sapiens, 72 h
Experimental: (§1) Breast cancer SUM159 was obtained from Asterand and grown according to supplier's recommendation. All other cell lines were obtained from ATCC and cultured in standard cell culture conditions with complete cell culture medium containing 10% FBS.
(§2) Cancer cells were seeded into optically clear tissue culture-treated black 96-well plates (for adherent cells) or low-attachment 96-well plates (for cancer stem cells) at 2,000-5000 cells/50 μL of media per well. The cells were treated with Wnt inhibitors at 0.1 to 10 μM for 72 h. Cell viability was measured by the Cell Titer Glo Assay from Promega.
(§3) Table 4 below illustrates the effects of the disclosed compounds on cell viability of colorectal cancer cell lines.

HCT116 = experiment: In vitro cell viability assay (Cell Titer Glo), colorectal cancer HCT116; details: Homo sapiens, HCT-116, 72 h
Experimental: as §1, §2, §3

S2VP10 = experiment: In vitro cell viability assay (Cell Titer Glo), pancreatic cancer S2VP10; details: 72 h
Experimental: as §1, §2

Wnt signaling = Wnt signaling reporter assay (Super8XTOPFlash luciferase) in LRP6-expressing HEK293 cells; details: 24 h treatment, luciferase normalized to β-galactosidase; for IC50: Homo sapiens, read-out: IC50 (effects on Wnt signaling)
Experimental: HEK293 cells were plated into 24-well plates. After overnight culture, the cells were transiently transfected with 0.06 μg of the Super8XTOPFlash luciferase construct, 0.06 μg of β-galactosidase-expressing vector, and 0.06 μg of pCS-Myc-hLRP6 or control vector. After 24 h incubation, cells were treated with each individual compound in triplicate for 24 h. Cells were then lysed, and the luciferase and β-galactosidase activities were determined by the luciferase assay system (Promega) and β-galactosidase assay system (Promega), respectively. The luciferase activity was normalized to the β-galactosidase activity.
Table 2 below illustrates the effects of the disclosed compounds on Wnt signaling in LRP6-expressing HEK293 cells.

Suit-2 = experiment: In vitro cell viability assay (Cell Titer Glo), pancreatic cancer Suit-2; details: 72 h
Experimental: as §1, §2

[1] = HT-29, CSC conditions, read-out: Cell viability (IC50) HT-29 CSC
[2] = HT-29, adherent, read-out: Cell viability (IC50) HT-29 Adherent
[3] = HCT116, CSC conditions, read-out: Cell viability (IC50) HCT116 CSC
[4] = HCT116, adherent, read-out: Cell viability (IC50) HCT116 Adherent
[5] = S2VP10, CSC enriching serum free medium, non-adherent plates, read-out: Cell viability (IC50) S2VP10 CSC
[6] = S2VP10, adherent, complete medium 10% FBS, read-out: Cell viability (IC50) S2VP10 Adherent
[7] = Suit-2, CSC enriching serum free medium, non-adherent plates, read-out: Cell viability (IC50) Suit-2 CSC
[8] = Suit-2, adherent, complete medium 10% FBS, read-out: Cell viability (IC50) Suit-2 Adherent

| SMILES | IC50 (HT-29; [1]) [nM] | IC50 (HT-29; [2]) [nM] | IC50 (HCT116; [3]) [nM] | IC50 (HCT116; [4]) [nM] | IC50 (S2VP10; [5]) [nM] | IC50 (S2VP10; [6]) [nM] | IC50 (Wnt signaling) [nM] | IC50 (Suit-2; [7]) [nM] | IC50 (Suit-2; [8]) [nM] | IC50 (effects on Wnt signaling) (Wnt signaling) |
| --- | --- | --- | --- | --- | --- | --- | --- | --- | --- | --- |
| Oc1ccc(Cl)cc1-c1nc2cc(Cl)c(Cl)nc2[nH]1 [Compound 9, 4-Chloro-2-(5,6-dichloro-3H-imidazo[4,5-b]pyridin-2-yl)phenol] | 8950 | 9760 | 510 | 2090 | 870 | 2240 | 1850 | > 10000 | > 10000 |  |
| CN1CCN(c2ccc(-c3nc4cc(Cl)c(Cl)cc4[nH]3)cc2)CC1 [Compound 10, 5,6-Dichloro-2-(4-(4-methylpipcrazin-1-yl)phenyl)-1H-benzo[d]imidazole] | 130 | 3290 | 21000 | 11200 | 910 | 4760 | 13 | 1340 | 5260 |  |
| Clc1cc2nc(-c3ccc(N4CCCCC4)cc3)[nH]c2cc1Cl [Compound 11, 5,6-dichloro-2-(4-(piperidin-1-yl)phenyl)-1H-benzo[d]imidazole] | 40 | 670 | 570 | 1010 | > 10000 | 1680 | 0.95 | > 10000 | 970 |  |
| Clc1cc2nc(-c3ccc(N4CCCC4)cc3)[nH]c2cc1Cl [Compound 12, 5,6-dichloro-2-(4-(pyrrolidin-1-yl)phenyl)-1H-benzo[d]imidazole] | 510 | 840 | 2680 | 1180 | > 10000 | 2580 | 0.93 | > 10000 | 2100 |  |
| Clc1cc2nc(-c3ccc(N4CCNCC4)cc3)[nH]c2cc1Cl [Compound 13, 5,6-dichloro-2-(4-(piperazin-1-yl)phenyl)-1H-benzo[d]imidazole] |  |  |  |  | > 10000 | > 10000 |  | > 10000 | > 10000 |  |
| CCN1CCN(c2ccc(-c3nc4cc(Cl)c(Cl)cc4[nH]3)cc2)CC1 [Compound 14, 5,6-dichloro-2-(4-(4-ethylpiperazin-1-yl)phenyl)-1H-benzo[d]imidazole] |  |  |  |  | 1330 | > 10000 |  | 1230 | > 10000 |  |
| Clc1cc2nc(-c3ccc(-n4ccnc4)cc3)[nH]c2cc1Cl [Compound 15, 2-(4-(1H-imidazol-1-yl)phenyl)-5,6-dichloro-1H-benzo[d]imidazole] |  |  |  |  | 1340 | > 10000 |  | 1810 | > 10000 |  |
| Cc1nccn1-c1ccc(-c2nc3cc(Cl)c(Cl)cc3[nH]2)cc1 [Compound 16, 5,6-dichloro-2-(4-(2-methyl-1H-imidazol-1-yl)phenyl)-1H-benzo[d]imidazole] |  |  |  |  | > 10000 | > 10000 |  | > 10000 | > 10000 |  |
| CN1CCN(c2ccc(-c3nc4ccc(C(F)(F)F)cc4[nH]3)cc2)CC1 [Compound 18, 2-(4-(4-methylpiperazin-1-yl)phenyl)-6-(trifluoromethyl)-1H-benzo[d]imidazole] |  |  |  |  | 1520 | 7160 |  | 760 | > 10000 | Inactive |
| CN1CCN(c2ccc(-c3nc4ccc(F)cc4[nH]3)cc2)CC1 [Compound 19, 6-fluoro-2-(4-(4-methylpiperazin-1-yl)phenyl)-1H-benzo[d]imidazole] |  |  |  |  | 350 | 790 |  | 330 | 1340 | Inactive |
| CN1CCN(c2ccc(-c3nc4ccncc4[nH]3)cc2)CC1 [Compound 20, 2-(4-(4-methylpiperazin-1-yl)phenyl)-3H-imidazo[4,5-c]pyridine] |  |  |  |  | 180 | 140 |  | 210 | 290 | Inactive |
| Cn1c(-c2ccc(OC(F)(F)F)cc2)nc2cc(Cl)c(Cl)cc21 [Compound 23, 5,6-dichloro-1-methyl-2-(4-(trifluoromethoxy)phenyl)-1H-benzo[d]imidazole] |  |  |  |  |  |  |  |  |  | Inactive |
| Fc1cc2nc(-c3ccc(OC(F)(F)F)cc3)[nH]c2cc1Cl [Compound 24, 6-chloro-5-fluoro-2-(4-(trifluoromethoxy)phenyl)-1H-benzo[d]imidazole] |  |  |  |  |  |  |  |  |  | Inactive |
| Fc1cc2[nH]c(-c3ccc(OC(F)(F)F)cc3)nc2cc1C(F)(F)F [Compound 25, 6-fluoro-2-(4-(trifluoromethoxy)phenyl)-5-(trifluoromethyl)-1H-benzo[d]imidazole] |  |  |  |  | 2770 | 7200 |  | 2050 | 5630 | Inactive |
| FC(F)(F)Oc1ccc(-c2nc3cc(C(F)(F)F)c(Cl)cc3[nH]2)cc1 [Compound 26, 6-chloro-2-(4-(trifluoromethoxy)phenyl)-5-(trifluoromethyl)-1H-benzo[d]imidazole] |  |  |  |  | 950 | 6920 |  | 860 | 6440 | Inactive |
| CN1CCN(c2ccc(-c3nc4cc(Cl)c(Cl)cc4[nH]3)cc2F)CC1 [Compound 27, 5,6-dichloro-2-(3-fluoro-4-(4-methylpiperazin-1-yl)phenyl)-1H-benzo[d]imidazole] |  | 140 | 1760 | 830 | 2910 | 8310 | 4.67 | 1990 | 8920 |  |
| c1cc2[nH]c(-c3ccc(N4CCCC4)cc3)nc2cn1 [Compound 28, 2-(4-(pyrrolidin-1-yl)phenyl)-1H-imidazo[4,5-c]pyridine] | 50 | 60 | 80 | 110 | 80 | 110 | 10400 | 150 | 160 |  |
| FC(F)(F)c1ccc2[nH]c(-c3ccc(N4CCCCC4)cc3)nc2c1 [Compound 29, 2-(4-(piperidin-1-yl)phenyl)-5-(trifluoromethyl)-1H-benzo[d]imidazole] |  |  |  |  | 1080 | > 10000 |  | 1420 | 7560 | Inactive |
| c1cc2nc(-c3ccc(N4CCCCC4)cc3)[nH]c2cn1 [Compound 30, 2-(4-(piperidin-1-yl)phenyl)-3H-imidazo[4,5-c]pyridine] |  |  |  |  |  | 60 |  | 70 | 80 | Inactive |
| FC(F)(F)c1cc2nc(-c3ccc(N4CCCC4)cc3)[nH]c2cc1Cl [Compound 32, 6-chloro-2-(4-(pyrrolidin-1-yl)phenyl)-5-(trifluoromethyl)-1H-benzo[d]imidazole] |  |  |  |  | 600 | 5200 |  | 1100 | 3870 | Inactive |
| Clc1cc2nc(-c3ccc(N4CCCCC4)cc3)[nH]c2nc1Cl [Compound 33, 5,6-dichloro-2-(4-(piperidin-1-yl)phenyl)-3H-imidazo[4,5-b]pyridine] |  |  |  |  | > 10000 | > 10000 |  | > 10000 | > 10000 | Inactive |
| Clc1cc2nc(-c3ccc(N4CCCC4)cc3)[nH]c2nc1Cl [Compound 34, 5,6-dichloro-2-(4-(pyrrolidin-1-yl)phenyl)-3H-imidazo[4,5-b]pyridine] |  |  |  |  | > 10000 | > 10000 |  | > 10000 | > 10000 | Inactive |
| FC(F)(F)c1cc(Cl)c2[nH]c(-c3ccc(N4CCCC4)cc3)nc2c1 [Compound 35, 7-chloro-2-(4-(pyrrolidin-1-yl)phenyl)-5-(trifluoromethyl)-1H-benzo[d]imidazole] |  |  |  |  | 150 | > 10000 |  | 240 | 9060 | Inactive |
| FC(F)(F)c1cc(Cl)c2[nH]c(-c3ccc(N4CCCCC4)cc3)nc2c1 [Compound 36, 7-chloro-2-(4-(piperidin-1-yl)phenyl)-5-(trifluoromethyl)-1H-benzo[d]imidazole] |  |  |  |  | 2950 | > 10000 |  | 2530 | 8660 | Inactive |
| FC(F)(F)c1cc2nc(-c3ccc(N4CCCCC4)cc3)[nH]c2cc1Cl [Compound 37, 6-chloro-2-(4-(piperidin-1-yl)phenyl)-5-(trifluoromethyl)-1H-benzo[d]imidazole] |  |  |  |  |  | 9250 |  | 550 | 5330 | Inactive |

Reference: patent US20170210741A1, “Benzimidazole Compounds, Use As Inhibitors of WNT Signaling Pathway in Cancers, and Methods for Preparation Thereof” (Southern Research Institute, priority 2016, published 2017)
